Values joined by “and” are separate entries in the source; they are usually repeats but may differ in a detail not shown here. Equal values may be shown once. Where a name gives a salt, the structure may show the parent alone.
Tested on: norepinephrin release in the rat prefrontal cortex
Experiment: Microdialysis: norepinephrine release in prefrontal cortex after I.P. administration
Type: in vivo
Conditions: for Norepinephrin release, MEAN / Norepinephrin release, individual animals: 3 mg/kg IP; for Norepinephrin release, MEAN: n = 8; for Norepinephrin release, individual animals: per animal R#15,16,21,22,27,28,09,10; for Norepinephrin release, individual animals / NOREPINEPHRIN in dialysate, individual animals: hydrochloride; for NOREPINEPHRIN in dialysate, individual animals: 0.1 mg/kg
Protocol: The aim of the study was to evaluate, using microdialysis, the effects of an intraperitoneal (I.P.) administration in rats of three different doses of SON-117 on dopamine and its metabolites, serotonin and its metabolite (5-HIAA), and norepinephrine levels in prefrontal cortex.
Thirty-two adult male Wistar rats were used for the whole study (4 groups of eight animals planned for the study, Table 1).
Surgery was performed on rats weighing about 300 g at the beginning of the experiments. Rats were anaesthetized with Ketamine (50 mg/kg) & Xylazine (15 mg/kg) by intramuscular administration. The animals were placed in a stereotaxic apparatus in the flat-skull position at a constant setting of −3.3 mm between ear bars and the incisor bar. The animals were treated with a local anesthesic (xylocaine 1%, Astra Zeneca) and an analgesic (Temgesic, from Schering Plough, 0.05 mg/kg, s.c.). A rostrocaudal midline incision was made with a lancet to expose the dorsal skull surface. The “stereotaxic zero” was defined by the Bregma in accordance with Paxinos and Watson's atlas (1986). A hole was drilled in the skull with a drill and the meninges were pierced with a sterile needle to implant a CMA12 guide cannula which later received the dialysis probe.
Coordinates used for implanting guide cannula in prefrontal cortex from Bregma were anteroposterior 3.7 mm, mediolateral 0.8 mm, and dorsoventral −2 mm (top of the probe was at −5 mm). The guide cannula was fixed to the skull with two stainless steel screws (1.88 mm outside diameter) anchored. An application of dental cement was added. A plastic collar allowed each animal to be tethered to a Swivel assembly of the CMA 120 awake animal system. Following surgery, rats were kept in individual cages and allowed to recover for a minimum of 3-5 days before the experimentation. The rats were handled and put in plastic bowl for 10 min at least every day to habituate the animals to their new environment for the dialysis. An I.P. administration with saline was also performed every day.
Dialysis probes (CMA12/3 mm, membrane, 20 kD cut-off, Carnegie Medicine, Stockholm, Sweden), were carefully washed before inserting into the guide cannula. The wash was performed with the artificial cerebrospinal fluid (aCSF) medium (NaCl 147 mM, KCl 2.7 mM, CaCl2 1.2 mM, MgCl2 0.85 mM) at room temperature. The dialysis system was then equilibrated at 20° C. at a perfusion rate of 1 μl/min with a Carnegie pump (CMA100). All catheters (FEP tubing, internal volume of 1.2 μl/10 cm, and tubing adaptors) used for microdialysis were treated in the same conditions.
The probes duly prepared were inserted into the guide cannula and the CMA120 Swivel assembly secured to the animal using a plastic collar. Flow through the dialysis probe with aCSF was maintained at a rate of 1 μl/min during the whole experimentation. The first four fractions (corresponding to 2 hours) were discarded to avoid the effects of parenchymal disturbance and to ensure that an approximate steady-state level was reached. Fractions were then collected over a period of 8.5 h during which time the animals remained quiet. The dialysates were automatically collected with an autosampler (microfraction collector CMA 140, Carnegie Medicin) and stored at −80° C. until analysis. […] Perfusion was then maintained for 7 hours with aCSF. The dialysates (30 μl) were collected into 300 μl vials, transferred into dry ice and then kept frozen (−80° C.) until analysis. Frozen samples were shipped to a partner for analysis. At the end of the microdialysis study, a PBS with colored ink was perfused through the probe in order to visualize the dialyzed area.
Catecholamine assay: Concentrations of dopamine, DOPAC, HVA, 5-HIAA, 5-HT, and norepinephrin were determined for each sample by HPLC coupled with electrochemical detection. […]

[1] = SON-117 0.1 mg/kg I.P., T0-T30 min
[2] = SON-117 0.1 mg/kg I.P., T30-T1 h

Cc1nnc(-c2cc3c(OC[C@@H](O)CN4CCC(c5ccc(Cl)c(Cl)c5)CC4)cccc3o2)o1 [SON-117, (S)-1-(4-(3,4-dichlorophenyl)piperidino)-3-(2-(5-methyl-1,3,4-oxadiazol-2-yl)benzo(b)furan-4-yloxy)-2-propanol hydrochloride]
Norepinephrin release, MEAN (T3 h 30-T4 h): 96.91 % of respective basal | Norepinephrin release, individual animals (T3 h 30-T4 h): 92.25 % of respective basal and 96.09 % of respective basal and 81.54 % of respective basal and 98.50 % of respective basal and 84.78 % of respective basal and 103.12 % of respective basal and 98.12 % of respective basal and 120.87 % of respective basal | Norepinephrin release, MEAN (T3 h-T3 h 30): 98.58 % of respective basal | Norepinephrin release, individual animals (T3 h-T3 h 30): 105.14 % of respective basal and 113.23 % of respective basal and 79.41 % of respective basal and 94.38 % of respective basal and 76.17 % of respective basal and 100.68 % of respective basal and 93.69 % of respective basal and 125.93 % of respective basal | Norepinephrin release, MEAN (T4 h 30-T5 h): 97.28 % of respective basal | Norepinephrin release, individual animals (T4 h 30-T5 h): 58.60 % of respective basal and 125.43 % of respective basal and 101.68 % of respective basal and 87.38 % of respective basal and 80.27 % of respective basal and 104.69 % of respective basal and 112.63 % of respective basal and 107.59 % of respective basal | Norepinephrin release, MEAN (T4 h-T4 h 30): 95.48 % of respective basal | Norepinephrin release, individual animals (T4 h-T4 h 30): 62.13 % of respective basal and 91.42 % of respective basal and 88.64 % of respective basal and 99.58 % of respective basal and 82.26 % of respective basal and 99.52 % of respective basal and 111.02 % of respective basal and 129.30 % of respective basal | Norepinephrin release, MEAN (T5 h 30-T6 h): 96.42 % of respective basal | Norepinephrin release, individual animals (T5 h 30-T6 h): 82.50 % of respective basal and 100.18 % of respective basal and 65.95 % of respective basal and 85.98 % of respective basal and 75.91 % of respective basal and 86.97 % of respective basal and 139.22 % of respective basal and 134.66 % of respective basal | Norepinephrin release, MEAN (T5 h-T5 h 30): 90.72 % of respective basal | Norepinephrin release, individual animals (T5 h-T5 h 30): 87.73 % of respective basal and 105.81 % of respective basal and 60.65 % of respective basal and 89.96 % of respective basal and 73.79 % of respective basal and 96.43 % of respective basal and 137.91 % of respective basal and 93.51 % of respective basal | Norepinephrin release, MEAN (T6 h 30-T7 h): 97.32 % of respective basal | Norepinephrin release, individual animals (T6 h 30-T7 h): 66.13 % of respective basal and 133.14 % of respective basal and 93.99 % of respective basal and 95.87 % of respective basal and 77.85 % of respective basal | Norepinephrin release, MEAN (T6 h-T6 h 30): 98.56 % of respective basal | Norepinephrin release, individual animals (T6 h-T6 h 30): 78.64 % of respective basal and 120.89 % of respective basal and 90.25 % of respective basal and 94.88 % of respective basal and 80.09 % of respective basal and 93.58 % of respective basal and 131.29 % of respective basal | Norepinephrin release, MEAN (T-30 min-T0 (before administration)): 97.42 % of respective basal | Norepinephrin release, MEAN (T-1 h 30-T-1 h (before administration)): 102.02 % of respective basal | Norepinephrin release, MEAN (T-1 h-T-30 min (before administration)): 100.56 % of respective basal | NE post injection levels vs mean pre-injection value (SON-117 0.1 mg/kg I.P.): no statistically significant differences | NOREPINEPHRIN in dialysate, MEAN [1]: 82.85 % of respective basal | NOREPINEPHRIN in dialysate, individual animals [1]: 92.79 % of respective basal and 99.624 % of respective basal and 74.34 % of respective basal and 64.40 % of respective basal and 84.29 % of respective basal and 81.69 % of respective basal | NOREPINEPHRIN in dialysate, MEAN [2]: 95.58 % of respective basal | NOREPINEPHRIN in dialysate, individual animals [2]: 105.21 % of respective basal and 96.78 % of respective basal and 87.94 % of respective basal and 101.10 % of respective basal and 90.37 % of respective basal and 88.40 % of respective basal and 114.24 % of respective basal and 80.61 % of respective basal | NOREPINEPHRIN in dialysate, MEAN (SON-117 0.1 mg/kg I.P., T1 h 30-T2 h): 81.28 % of respective basal

Reference: patent US20250109127A1, “METHODS OF USE OF PHENOXYPROPYLAMINE COMPOUNDS TO TREAT DEPRESSION” (Minerva Neurosciences, Inc., priority 2013, published 2025)
